In patent publication US4900719A, “Nitrosothiols as hypotensive agents” (The Ohio State University, priority 1988, dated 1990):

Columns and labels:
anesthetized dogs [1] = experiment: arterial blood pressure after intravenous injection in anesthetized dogs (Examples 2 and 3); type: in vivo; conditions: intravenous injection in dextrose
[2] = stability of other nitrosothiols (qualitative statement); type: physicochemical
[3] = storage stability of solid GSNO (absorbance at 544 nm); type: physicochemical
Procedure: In air at 4° no change in the characteristic original absorbance at 544 nm was observed after 32 days. At room temperature, 75% of that absorption remained after the same period.

anesthetized dogs [4] = experiment: mean arterial pressure during venous infusion in anesthetized dogs; type: in vivo, mongrel dogs
Procedure: (§1) Fifty milligrams of SNP (Nipride, Roche Laboratories) was reconstituted in 250 ml of 5% dextrose in water. A GSNO solution was diluted as 50 ug/ml in 5% dextrose in water. Seven mongrel dogs (18.1-31.8 kg) and seven cynomologus monkeys (Macaca fascicularis; 4.4-9.0 kg) were used in the study. The animals were given a pre-anesthetic (monkeys--Ketamine HCl, 10 mg/kg I.M.; dogs--0.2 mg/kg fentanyl and 1 mg/kg droperidol, Innovar Vet I.V.) and anesthetized with a mixture of α-chloralose (50 mg/kg) and urethane (500 mg/kg) given as an intravenous injection. The left femoral artery and vein were cannulated with heparinized saline-filled catheters. Arterial pressure was obtained from the arterial catheter using an electromedics MS-20 solid state pressure transducer and recorded on a Gould 2400 chart recorder. Randomized venous infusions of GSNO (n=7) and SNP (n=5) were made using Harvard apparatus compact infusion pump model 976. The infusion was maintained until a new steady state value for mean arterial pressure had been obtained for each infusion rate. The infusion rate was varied over the following ranges: GSNO 1.5-38.9 μg/kg/min (8 levels) and SNP 1.7-43.8 μg/kg/min (6 levels).
(§2) Intravenous administrations of GSNO or SNP in a wide range of doses decreased systematic arterial pressure in a dose related fashion. […]

anesthetized monkeys = experiment: mean arterial pressure during venous infusion in anesthetized monkeys; type: in vivo, cynomologus monkeys (Macaca fascicularis)
Procedure: as §1, §2

[5] = tested on: anesthetized dogs and monkeys; experiment: venous infusion in anesthetized dogs and monkeys, collected animal data (response time, onset/dissipation, effective dosage); type: in vivo
Procedure: as §1
Intravenous administrations of GSNO or SNP in a wide range of doses decreased systematic arterial pressure in a dose related fashion. FIGS. 1 and 2 show the dose-response curves for the dogs and monkeys, respectively, that occurred by SNP or GSNO administrations. In each figure (.) presents the data for SNP and (o) presents the data for GSNO. The blood pressure lowering effect of SNP and GSNO is greater in monkeys than in dogs. When 20 μg/kg/min of SNP or GSNO was administered, mean arterial pressure decreased 35-40 torr for dogs and 45 torr for monkeys. The noted response time for SNP was about 28.6±2.5 sec. and for GSNO about 33.4±6.0 sec.
From the collected animal data, it can be noted that in general the decrease in blood pressure is dosage dependent.

change in characteristic original absorbance at 544 nm ([3]; in air at 4°, after 32 days)	absorption at 544 nm remaining ([3]; room temperature, after 32 days) [%]	effect of exclusion of light and air on stability ([3]; storage for more than 30 days)	SMILES	lowering of arterial blood pressure (in words) (anesthetized dogs [1])	stability (in words) [2]	blood pressure lowering (in words) (anesthetized dogs [4]; anesthetized dogs, venous infusion, to about the same extent as SNP)	decrease in mean arterial pressure (anesthetized dogs [4]; dogs, 20 μg/kg/min venous infusion)	blood pressure lowering (in words) (anesthetized monkeys; anesthetized monkeys, venous infusion, to about the same extent as SNP)	decrease in mean arterial pressure (anesthetized monkeys; monkeys, 20 μg/kg/min venous infusion) [torr]	onset and dissipation of effect ([5]; anesthetized dogs and monkeys, compared with SNP)	effective dosage to significantly lower arterial pressure ([5]; infusion administration, from the collected animal data)	response time ([5]; venous infusion, species not stated)
			C[C@H](CSN=O)C(=O)N1CCC[C@H]1C(=O)O [S-Nitrosocaptopril, D-(S-nitroso) 3-mercaptomethylpropionyl-L-proline]	Significant lowering of arterial blood pressure	quite stable							
no change	75	virtually no noticeable effect	N[C@@H](CCC(=O)N[C@@H](CSN=O)C(=O)NCC(=O)O)C(=O)O [GSNO, S-nitrosoglutathione]			significantly lowered blood pressure	35-40 torr	significantly lowered blood pressure	45	essentially the same as obtained with SNP	at least 7 μg/1 kg animal weight/minute	about 33.4±6.0 sec.
